From ChEMBL document CHEMBL1201862, “PubChem BioAssay data set” (2004)
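Assay format: 96-well plates, 48-hour exposure. At the GI50, growth is halved.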 Activity calls are given as the source filed them. No stated cut-off is given here; in the data, active = GI50 up to about 1.1 µM and inactive = higher.

What was measured:
Test in all cases: DTP human tumour cell line panel, 48 h
[1] = tested on: OVCAR-8
[2] = tested on: SK-MEL-28
[3] = tested on: NCI-H460
[4] = tested on: A549
[5] = tested on: SK-OV-3
[6] = tested on: 786-0
[7] = tested on: CAKI-1
[8] = tested on: SR
[9] = tested on: IGROV-1
[10] = tested on: HT-29
[11] = tested on: MDA-MB-231
[12] = tested on: KM12
[13] = tested on: ACHN
[14] = tested on: T47D
[15] = tested on: Hs-578T
[16] = tested on: UACC-257
[17] = tested on: MOLT-4
[18] = tested on: BT-549
[19] = tested on: SF-295
[20] = tested on: SF-539

Measured: GI50

CCOC(=O)N1[C@@H]2CCC[C@@H]2C(=O)[C@@H]2CCC[C@@H]21
inactive: [1] > 100 µM | [2] > 100 µM | [3] > 100 µM | [4] > 100 µM | [5] > 100 µM | [6] > 100 µM | [7] > 100 µM | [8] > 100 µM | [9] > 100 µM | [10] > 100 µM | [11] > 100 µM | [12] > 100 µM | [13] > 100 µM | [14] > 100 µM | [15] > 100 µM | [16] > 100 µM | [17] > 100 µM | [18] > 100 µM

O=C(O)CCSCc1ccc(I)cc1
inactive: [1] > 100 µM | [2] > 100 µM | [3] > 100 µM | [4] > 100 µM | [5] > 100 µM | [6] > 100 µM | [19] > 100 µM | [7] > 100 µM | [9] > 100 µM | [10] > 100 µM | [11] > 100 µM | [12] > 100 µM | [13] > 100 µM | [14] > 100 µM | [15] > 100 µM | [16] > 100 µM | [17] > 100 µM | [18] > 100 µM

O=C(CN1C(=O)CC(c2ccccc2)(c2ccccc2)C1=O)N1CCN(CCO)CC1
inactive: [1] > 100 µM | [2] > 100 µM | [20] > 100 µM | [4] > 100 µM | [5] > 100 µM | [6] > 100 µM | [19] > 100 µM | [7] > 100 µM | [9] > 100 µM | [10] > 100 µM | [11] > 100 µM | [12] > 100 µM | [13] > 100 µM | [14] > 100 µM | [15] > 100 µM | [16] > 100 µM | [17] > 100 µM | [18] > 100 µM

CCCn1cnc2c(/N=N/O)ncnc21
inactive: [1] > 100 µM | [2] > 100 µM | [3] > 100 µM | [20] > 100 µM | [6] > 100 µM | [7] > 100 µM | [8] > 100 µM | [9] > 100 µM | [10] > 100 µM | [11] > 100 µM | [12] > 100 µM | [13] > 100 µM | [14] > 100 µM | [15] > 100 µM | [17] > 100 µM | [18] > 100 µM

CC(=O)Oc1ccc2cc(-c3ccc(OC(C)=O)c(OC(C)=O)c3)c(=O)oc2c1
inactive: [1] > 100 µM | [2] 81.7 µM | [3] 85.9 µM | [20] > 100 µM | [4] 73.6 µM | [6] > 100 µM | [19] 52.8 µM | [8] 87.7 µM | [10] > 100 µM | [11] > 100 µM | [12] 32.8 µM | [13] > 100 µM | [14] 24.5 µM | [15] 54.2 µM | [16] 97.9 µM | [17] > 100 µM | [18] 42.3 µM

CNc1ccc(-c2nc3cc(C)ccc3o2)cc1
inactive: [1] 58.1 µM | [2] > 100 µM | [3] > 100 µM | [20] 49.5 µM | [4] > 100 µM | [5] 18.2 µM | [6] 47.3 µM | [19] 28.9 µM | [7] > 100 µM | [9] > 100 µM | [10] > 100 µM | [11] 40.1 µM | [12] > 100 µM | [13] 57.3 µM | [14] 13.8 µM | [15] 64.6 µM | [16] > 100 µM | [17] 34.9 µM | [18] 45.8 µM

COC(=O)C1=C(C(=O)OC)C(C(=O)c2ccccc2)N2N=C(c3ccc(Cl)cc3)C=CC12 (stereo not given)
inactive: [1] 12.4 µM | [2] > 100 µM | [3] 37.1 µM | [20] > 100 µM | [4] 31 µM | [5] > 100 µM | [6] > 100 µM | [19] 44.7 µM | [7] > 100 µM | [8] > 100 µM | [10] 9.59 µM | [11] > 100 µM | [12] 13.1 µM | [13] > 100 µM | [14] > 100 µM | [16] > 100 µM | [17] 5.69 µM | [18] 2.09 µM

O=C(NC1(C(=O)O)CCCC1)c1ccccc1
inactive: [1] > 100 µM | [2] > 100 µM | [3] > 100 µM | [20] > 100 µM | [4] > 100 µM | [5] > 100 µM | [6] > 100 µM | [19] > 100 µM | [7] > 100 µM | [9] > 100 µM | [10] > 100 µM | [11] > 100 µM | [12] > 100 µM | [13] > 100 µM | [14] > 100 µM | [15] > 100 µM | [16] > 100 µM | [17] > 100 µM | [18] > 100 µM

O=c1ccc2nc3ccc(O)cc3oc-2c1
inactive: [1] 16.4 µM | [3] 12 µM | [20] 4.7 µM | [4] 4.27 µM | [5] > 100 µM | [6] 13.4 µM | [19] 8.49 µM | [7] > 67.9 µM | [9] 39.5 µM | [10] 24 µM | [11] > 100 µM | [12] 5.6 µM | [13] 8.11 µM | [14] > 100 µM | [15] 6.92 µM | [16] 8.69 µM | [17] 34 µM | [18] 7.24 µM

NC(Cc1ccc(O)cn1)C(=O)O (stereo not given)
inactive: [1] > 100 µM | [2] > 100 µM | [3] > 100 µM | [20] > 100 µM | [4] > 100 µM | [6] > 100 µM | [19] > 100 µM | [7] > 100 µM | [8] > 100 µM | [9] > 100 µM | [10] > 100 µM | [11] > 100 µM | [12] > 100 µM | [13] > 100 µM | [15] 4.19 µM | [16] > 100 µM | [17] > 100 µM | [18] > 100 µM

CC(C)C(/C=C/c1ccc(Cl)cc1)=N\NC(=S)NN
inactive: [1] 12 µM | [2] 39.7 µM | [3] 5.26 µM | [20] 25.1 µM | [4] 31.6 µM | [5] 33.7 µM | [6] 20.5 µM | [19] 22.1 µM | [7] 22.4 µM | [9] 20.2 µM | [10] 23.3 µM | [11] > 100 µM | [12] 23.8 µM | [13] 10.6 µM | [14] 6.59 µM | [15] 14.6 µM | [16] 22.5 µM | [17] 4.15 µM | [18] 23.1 µM

NC(=O)CN1C=CCC(C(N)=O)=C1 [CARICOTAMIDE]
inactive: [1] > 100 µM | [3] > 100 µM | [20] > 100 µM | [4] > 100 µM | [5] > 100 µM | [6] > 100 µM | [19] > 100 µM | [7] > 100 µM | [9] > 100 µM | [10] > 100 µM | [12] > 100 µM | [13] > 100 µM | [14] > 100 µM | [16] > 100 µM | [17] > 100 µM | [18] > 100 µM

O=C(CN1CCCCC1)c1ccc2[nH]c(=O)oc2c1
inactive: [1] > 100 µM | [2] > 100 µM | [3] > 100 µM | [20] > 100 µM | [5] > 100 µM | [6] > 100 µM | [19] > 100 µM | [7] > 100 µM | [8] > 100 µM | [9] > 100 µM | [10] > 100 µM | [11] > 100 µM | [12] > 100 µM | [13] > 100 µM | [15] > 100 µM | [16] > 100 µM | [17] > 100 µM | [18] > 100 µM

COc1ccc(/N=N/C(=O)NC(CC(C)C)C(=O)NC(C)C(=O)O)cc1 (stereo not given)
inactive: [1] > 43.1 µM | [2] 17.1 µM | [3] 9.66 µM | [20] 2.04 µM | [4] 3.32 µM | [6] > 100 µM | [19] 9.82 µM | [7] > 100 µM | [8] 12.7 µM | [9] 18.6 µM | [10] > 40 µM | [11] > 23.4 µM | [12] 29 µM | [13] 1.53 µM | [14] 3.63 µM | [15] > 79.3 µM | [16] 23 µM | [17] 4.22 µM | [18] 52.8 µM

O=C(/C=C/c1cc(F)ccc1F)OCCc1ccccc1
inactive: [1] > 100 µM | [2] > 100 µM | [20] 88.5 µM | [4] > 100 µM | [6] 89.3 µM | [7] > 100 µM | [8] 40.2 µM | [9] > 100 µM | [10] 43 µM | [11] 63 µM | [12] 96.2 µM | [13] > 100 µM | [15] 1.67 µM | [16] > 100 µM | [17] 49.3 µM | [18] > 100 µM

CCCCN(c1ccccc1)c1ncnc2c1cnn2C
inactive: [1] 41.2 µM | [2] 38.6 µM | [3] 31.6 µM | [4] 51.2 µM | [5] 50.1 µM | [6] 53.3 µM | [19] 32.5 µM | [7] 45.1 µM | [9] 34.7 µM | [10] 29.9 µM | [11] 26.6 µM | [12] 46 µM | [13] 37.7 µM | [14] 20.2 µM | [15] 22.4 µM | [16] 28.7 µM | [17] 8.69 µM | [18] 20.3 µM
